Article PMC11434868, “Synthesis and Antiproliferative Effect of 3,4,5-Trimethoxylated Chalcones on Colorectal and Prostatic Cancer Cells” (Pharmaceuticals, 2024)
Where two headings read alike, the source gives them in different places.

How the values were obtained:
[1] = test system: cellular microtubules in HeLa cells; test: Quantitative assay of the cellular microtubule content (immunoluminescence); format: cell-based; conditions: Homo sapiens, 0.5 h, 30 min incubation
Method: The assay was realized as described by Laisne et al.. Briefly, 7500 HeLa cells were seeded in 96-well microplates (#655086, Greiner bioOne, Courtaboeuf, France) in 100 µL of complete medium per well and then incubated at 37 °C in 5% CO2 for 24 h. Cells were then treated for 30 min at 37 °C with the compounds at concentrations ranging from 0.1 to 1000 µM (1 microplate per molecule, 1 concentration per column), with 0.1% DMSO used as […] (6 wells per microplate). After medium aspiration, treated cells were permeabilized for 10 min using 100 µL per well of warmed (37 °C) OPT buffer (80 mM Pipes, 1 mM EGTA, 1 mM MgCl2, 0.5% Triton X-100, and 10% glycerol, pH 6.8). Cells were fixed overnight at room temperature using 100 µL per well of 4% formaldehyde (Sigma Aldrich, #252549, Saint-Quentin-Fallavier, France) in PBS. Cells were washed 3 times in PBS, 0.1% Tween-20 (100 µL per well), then primary anti-alpha-tubulin antibody (clone α3A1), 1:5000 in PBS 2% Bovine Serum Albumin (BSA), was added for 45 min. Cells were washed twice again and secondary anti-mouse antibody coupled to HRP (1:2000 in PBS 2% BSA, #715-035-150, Jackson Immuno-Research Laboratories, Cambridgeshire, UK) was added for 45 min. Then, cells were washed again with PBS and 100 µL of ECL substrate (#170-5061, Bio-Rad Laboratories Inc., Hercules, CA, USA) was injected in each well using the FLUOstar OPTIMA Microplate Reader (BMG Lab technology, Champagny-sur-Marne, France). The luminescent signal was read immediately after ECL injection. IC50 values were calculated using GraphPad Prism software (10.3.1 version) and are presented in the text as means ± SEM of three independent experiments.

DU145 = test: MTT assay, antiproliferative effect on DU145; format: cell-based; conditions: Homo sapiens
Method: (§1) Human CRC (HCT116 and HT-29) and PCa (DU145 and PC3) cell lines were purchased from the American Type Culture Collection (ATCC—LGC Standards, Molsheim, France). All cells were grown in RPMI 1640 medium supplemented with 10% FBS, 1% L-glutamine, 100 U/mL penicillin, and 100 μg/mL streptomycin. Cultures were maintained in a humidified atmosphere containing 5% CO2 at 37 °C. Cells were seeded in 75 cm^2 culture flasks at 1.2 × 10^4 cells/cm^2 for HCT116, DU145, and PC3 cells, and 2.0 × 10^4 for HT-29 cells. Cells were grown for 24 h in culture medium prior to exposure or not to obtain the synthesized compounds. Stock solutions (10^−2 M in DMSO) of each compound were diluted in culture medium to obtain appropriate final concentrations.
(§2) • (a) MTT assay: The antiproliferative effect of all compounds was determined using MTT assay (a metabolic activity test). Briefly, cells were seeded in 96-well culture plates at 4 × 10^3 cells/well for HCT116, PC3, and DU145 cells and 6 × 10^3 cells/well for HT-29 cells (100 µL/well), and grown for 24 h in culture medium prior to exposure or not to obtain compounds 1–15 with concentrations ranging from 5 nM to 50 μM. After 24 and 48 h of treatment, MTT (5 mg/mL in PBS) was added and incubated for another 3 h. MTT was then removed from the wells before adding 100 μL/well of DMSO. The optical density was detected with a microplate reader (Multiskan FC, Thermoscientific, Bordeaux, France) at 550 nm and cell viability was expressed as a percentage of each treatment condition compared to control cells. IC50 values were calculated for all compounds from the dose–response curve. Data are expressed as the arithmetic means ± standard error of the mean (SEM) of separate experiments. All experiments were performed at least in triplicate. • (b) Trypan blue dye exclusion method: Cells were grown for 24 h then treated with compounds 10 and 13 at indicated concentrations. After 48 h of treatment, cells were trypsinized and resuspended in complete medium. Each sample was mixed with Trypan blue solution (0.14% in HBSS, Invitrogen-GIBCO, ThermoFisher, Illkirch, France). Colored (non-viable) and dye-excluding (viable) cells were counted with the LUNA-II automated cell Counter (Logos Biosystems; MC2, Aubière, France). The control was normalized to 100% including viable and dead cells. The results indicated on the histograms were expressed as the percentage of cells compared to the control. IC50 values were determined from the percentages of viable cells compared to the control.

HCT116 = test: MTT assay, antiproliferative effect on HCT116; format: cell-based; conditions: Homo sapiens
Method: as §1, §2

HT-29 = test: MTT assay, antiproliferative effect on HT-29; format: cell-based, human
Method: as §1, §2

PC3 = test: MTT assay, antiproliferative effect on PC3; format: cell-based; conditions: Homo sapiens
Method: as §1, §2

[2] = test system: human PCa (DU145 and PC3) cell lines; test: MTT assay, summary statements for PCa cells; format: cell-based
Method: as §1, §2

HeLa cells microtubules = test: Tubulin immunofluorescence; format: cell-based; conditions: 30 min, chalcone 8 at 1 µM or chalcone 2 at 200 µM
Method: Cells at a density of 20,000 cells per well were grown for 48 h on glass coverslips placed in a 24-well microplate. When cells reached 70% confluence, the medium was replaced with a fresh one supplemented with DMSO (0.005% or 0.01%) or the test compound at 1 or 200 µM. After 30 min of incubation, cells were permeabilized in warm OPT buffer (80 mmol/L Pipes, […], 0.5% Triton X-100 and 10% Glycerol, pH 6.8) and fixed for 6 min in −20 °C methanol (Carlo ERBA SAS, #414855, Val-de-Reuil, France). After washing and saturation with a specific blocking buffer (3% BSA), 10% Goat serum (Gibco Invitrogen, #16210064, Carlsbad, CA, USA) in PBS, cells were incubated for 45 min at room temperature (RT) with anti-alpha-tubulin antibody (clone α3A1 in blocking buffer). Cells were washed twice again and subsequently incubated with Alexa 488 conjugated anti-mouse antibody (1:500 in blocking buffer, #115-545-166, Jackson immune-research laboratory, Cambridgeshire, UK) and DNA was stained with Dapi which was included in mounting media (Dapi fluoromount, #0100-20, Clinisciences, France). Images were captured with a Zeiss AxioimagerM2 microscope (Zeiss microscopy, Rueil Malmaison, France) equipped with the acquisition software AxioVision (4.8 version, Marly-le-Roi, France).

[3] = read-out: IC50 depolymerization of cellular microtubules
[4] = DU-145, 24 h, read-out: IC50 DU145 24 h
[5] = DU-145, 48 h, read-out: IC50 DU145 48 h
[6] = HCT-116, 24 h, read-out: IC50 HCT116 24 h
[7] = HCT-116, 48 h, read-out: IC50 HCT116 48 h
[8] = 48 h, read-out: IC50 HT-29 48 h
[9] = Homo sapiens, HT-29, 24 h, 24 h, read-out: IC50 HT-29 24 h
[10] = Homo sapiens, HT-29, 48 h, 48 h, read-out: IC50 HT-29 48 h
[11] = PC-3, 24 h, read-out: IC50 PC3 24 h
[12] = PC-3, 48 h, read-out: IC50 PC3 48 h

IC50 ([1]; no unit in the picture, read-out: IC50 microtubule contents (printed in Figure 8)) [µM] | IC50 [1, 3] [µM] | IC50 (DU145; [4]) [µM] | IC50 (DU145; [5]) [µM] | IC50 (HCT116; [6]) [µM] | IC50 (HCT116; [7]) [µM] | IC50 (HT-29; [8]) [µM] | IC50 (HT-29; [9]) [µM] | IC50 (HT-29; [10]) [µM] | IC50 (PC3; [11]) [µM] | IC50 (PC3; [12]) [µM] | IC50 ([2]; Homo sapiens, DU-145, DU145 and PC3, text summary, read-out: IC50 against PCa cells) [µM] | IC50 ([2]; DU145 and PC3, read-out: IC50 towards PCa cells) [µM] | IC50 ([2]; Homo sapiens, DU-145, DU145 and PC3, text summary, read-out: IC50 towards PCa cells) [µM] | SMILES | state of tubulin / microtubules by immunofluorescence (HeLa cells microtubules)
106 ± 4.69 | 106 ± 4.7 | 3.47 ± 0.24 | 2.97 ± 0.15 | 4.23 ± 0.11 | 2.66 ± 0.1 | 7.34 ± 0.22 | 9.87 ± 0.44 | 7.3 | 3.76 ± 0.28 | 3.44 ± 0.11 | ~3 |  |  | COc1cc(C(=O)/C=C/c2cccc(O)c2)cc(OC)c1OC [chalcone 2, (E)-3-(3-hydroxyphenyl)-1-(3,4,5-trimethoxyphenyl)prop-2-en-1-one] | tubulin is mainly in its depolymerized form
 | 0.289 ± 0.045 | 0.036 ± 0.002 | 0.031 ± 0.001 | 0.22 ± 0.01 | 0.11 ± 0.02 | 8.11 ± 0.5 | 8.03 ± 0.18 | 8.1 | 0.021 ± 0.001 | 0.02 ± 0.001 |  | ~0.02 | 0.017 to 0.031 | COc1ccc(/C=C/C(=O)c2cc(OC)c(OC)c(OC)c2)cc1O [chalcone 8, (E)-3-(3-hydroxy-4-methoxyphenyl)-1-(3,4,5-trimethoxyphenyl)prop-2-en-1-one] | tubulin is mainly in its depolymerized form
